Data on nine molecules can be found in paper PMC11768359, “2-Aminothiophene Derivatives—New Drug Candidates Against Leishmaniasis: Drug Design, Synthesis, Pharmacomodulation, and Antileishmanial Activity” (Pharmaceuticals, 2025).

In series [1] the test system is RAW 264.7 macrophages. Briefly: Cytotoxicity in macrophages (MTT). The note with it: 48 h. In kind it is cell-based. The method, then: (§1) The in vitro tests utilized Leishmania amazonensis parasites (IFLA/BR/67/PH8). These leishmania cell lines were obtained from Oswaldo Cruz Foundation (FIOCRUZ)/Brazil. The promastigote forms were cultivated in Schneider’s insect medium at 26 °C in a biological oxygen demand (BOD) incubator. Schneider’s insect medium was supplemented with 20% fetal bovine serum (FBS) and 1% penicillin (100 U/mL) and streptomycin (µg/mL) (complete Schneider). Next, we differentiated them from promastigote forms by changing the conditions to Schneider’s insect medium supplemented with 5% FBS, pH 4.6, and a temperature of 32 °C to obtain axenic amastigote forms of L. amazonensis. Meanwhile, RAW 264.7 macrophages were cultured in […] cell culture flasks using DMEM medium supplemented with 10% FBS, 1% penicillin 100 U/mL, and 100 μg/mL streptomycin (complete DMEM) and incubated at 37 °C and 5% CO2.
(§2) First, 100 μL DMEM medium complete with 1 × 10^6 macrophages (RAW 264.7) was added to each well of a 96-well plate. RAW 264.7 macrophages were obtain from ATCC: code TIB-71^TM. The plate was placed in an incubator (37 °C, 5% CO2) (Sanyo, model COM-15A, Sanyo Electric Co., Osaka, Japan) for 4 h to promote cell adhesion. After this period, two washes were conducted with previously heated DMEM medium (37 °C) to remove non-adhered cells. 2-amino-thiophene and 2-amino-selenophene derivatives were added to wells at serial concentrations of 400 to 25 µM and then incubated for 48 h. Next, 10 μL of MTT at a […] of 5 mg/mL were added to each well and incubated for 4 h. The plate was then shaken for 30 min and read at the test and reference wavelengths of 550 and 620 nm, respectively, in a plate reader. DMEM medium supplemented with 0.5% DMSO was used as a negative control and considered as 100% macrophage viability. The selectivity index for each treatment was calculated as the ratio between the concentration of cytotoxicity of RAW 264.7 macrophages (CC50) and the 50% inhibitory concentration (IC50) or effective concentration (EC50), as measured for the different evolutionary forms of L. amazonensis.

For series [2], the system named is promastigotes of L. amazonensis. Nature of the series: Growth inhibition of promastigote forms of L. amazonensis (MTT). In kind it is cell-based, Leishmania amazonensis. The note with it: 72 h, 26 °C. On the procedure: as §1
(§3) Parasite growth inhibition was evaluated using the methodology described by Rodrigues et al. (2015). Cultures of logarithmically growing promastigote and axenic amastigote forms (1 × 10^6 parasites/mL) were incubated in 96-well plates containing 100 µL of supplemented Schneider’s medium in triplicate. Serial concentrations of 2-amino-thiophene and 2-amino-selenophene derivatives (10.00–0.156 μM) and the reference drugs meglumine antimoniate (500–40,000 μg/mL), amphoterecinB (0.1–2 μM), and pentamidine (3.12–100 µM) were added. BNP was used as a negative control. The cultures were incubated in a biological oxygen demand oven (model Eletrolab EL202, São Paulo, Brazil) at 26 °C for promastigotes and 32 °C for axenic amastigotes for 72 h. Then, 10 μL of MTT (5 mg/mL) was added to each well to colorimetrically evaluate growth inhibition. The plate was subsequently incubated for a further 4 h, followed by adding 50 μL of 10% sodium dodecyl sulfate solution for […] before the optical density of the culture was read on a microplate spectrophotometer reader. The reading was taken at the test and reference wavelengths of 540 and 620 nm using a microplate spectrophotometer. The negative control consisted of 0.2% […] with BNP, considered to be 100% viable.

Series [3] concerns RAW 264.7 macrophages. The note with it: previously published; cited from earlier work.
In series [4] the test system is promastigotes of L. amazonensis. The note with it: cited from earlier work.
In series [5] the test system is axenic amastigotes of L. amazonensis. Particulars: cited from earlier work; for EC50: read-out: EC50 against amastigotes.
The nature of series [6]: Cytotoxicity in macrophages (MTT). Particulars: mouse, RAW 264.7 macrophages. It is filed as cell-based. The method, then:
as §1, §2

In series [7] the test system is axenic amastigotes of L. amazonensis. Briefly: Growth inhibition of axenic amastigote forms of L. amazonensis (MTT). It is filed as cell-based, Leishmania amazonensis. Particulars: Leishmania amazonensis, 72 h, 32 °C. The method, then:
as §1, §3

The subject of another series is L. amazonensis. The note with it: Swiss mice, oral, 50 and 200 mg/kg, 7 weeks; versus meglumine antimoniate i.p. 100 mg/kg; cited from earlier work.
The mark [8] stands for this setting: L. amazonensis promastigotes, previously published, read-out: IC50 Promastigotes.
Where [9] appears, read: L. amazonensis axenic amastigotes, previously published, read-out: IC50 Amastigotes.
Setting [10] is: L. amazonensis amastigotes, previously published, read-out: IC50 Amastigotes.

Values joined by “and” are separate entries in the source; they are usually repeats but may differ in a detail not shown here. Identical values can stand only once. Like-named read-outs stand apart in the source and are kept apart here. Where only a bound is given, the exact number is not on record here.

As a reminder, the IC50 is the concentration at which inhibition is half-maximal. On to `C[C@@H]1[C@H](O)[C@@H](C)/C=C/C=C/C=C/C=C/C=C/C=C/C=C/[C@H](O[C@@H]2O[C@H](C)[C@@H](O)[C@H](N)[C@@H]2O)C[C@@H]2O[C@](O)(C[C@@H](O)C[C@@H](O)[C@H](O)CC[C@@H](O)C[C@@H](O)CC(=O)O[C@H]1C)C[C@H](O)[C@H]2C(=O)O` [Amphotericin B, reference compound], for which the CC50 in the series with RAW 264.7 macrophages [1] is 0.18 µM and 0.3 µM; in the series with RAW 264.7 macrophages [1] (listed as Anfotericina B) it was 0.38 µM. In addition, the IC50 in series [2] is 0.17 µM and 0.3 µM; in series [2] (listed as Anfotericina B), 0.36 µM.

In the case of `N#Cc1c(N)sc2c1CCCCC2` [Compound 7CN], the CC50 in the series on RAW 264.7 macrophages [3] was 99.5 µM. Also, the half-maximal inhibitory concentration (IC50) in series [4] (setting [8]) is 3.2 µM and 3.14 µM; in series [5] (setting [9]) it was 2.7 µM and 2.79 µM.

Regarding `N#Cc1c(/N=C/c2c[nH]c3ccc(Br)cc23)sc2c1CCCCCC2` [Compound 8CN83], the CC50 in the series on RAW 264.7 macrophages [3] was greater than 100 µM. The IC50 in series [4] (setting [8]) is 4.7 µM and 4.75 µM; in series [5] (setting [9]) it was 3.8 µM.

In the case of `N#Cc1c(N)sc2c1CCCCCC2` [Compound 8CN], the CC50 in the series on RAW 264.7 macrophages [3] was 43.9 µM. For the same molecule, in series [4] (setting [8]), the concentration for half-maximal inhibition (IC50) was 1.2 µM.

In series [6], `CC(C)(C)OC(=O)N1CCc2c(sc(N)c2C(N)=O)C1` [Compound 19] had a CC50 at 48 h of 310 µM. The 50% inhibitory concentration (IC50) was 2.1 µM and 2.16 µM in series [4] (L. amazonensis, read-out: IC50 against promastigotes); 9.35 µM in series [2] (Leishmania amazonensis); greater than 10 µM in series [7]; 0.9 µM in series [5] (L. amazonensis, read-out: IC50 against axenic amastigotes).

`CC(C)(C)OC(=O)c1c(N)sc2c1CCN(C(=O)OC(C)(C)C)C2` [Compound 22] showed a CC50 at 48 h in series [6] of 195 µM. The half-inhibitory concentration (IC50) worked out at 6.52 µM in series [2] (Leishmania amazonensis) and 8.35 µM in series [7].

`CC1CCc2c(sc(/N=C/c3c[nH]c4ccc(Br)cc34)c2C#N)C1` (stereo not shown) [Me-6CN83]: the CC50 in the series on RAW 264.7 macrophages [3] is greater than 100 µM. For the same molecule, the IC50 in series [4] (setting [8]) is 9.9 µM; in series [5] (setting [9]), 8.7 µM and 8.72 µM.

Usually EC50 stands for the concentration at which the effect is half-maximal. Take `N#Cc1c(/N=C/c2c[nH]c3ccc(Br)cc23)sc2c1CCCC2` [SB-83]: the half-maximal inhibitory concentration (IC50) in series [4] (setting [8]) is 3.3 µM and 3.37 µM; in series [5] (setting [10]), 18.5 µM. Moreover, the “paw lesion size and parasite load in the reservoirs” value in the series with L. amazonensis is “more effective than meglumine antimoniate”. In series [5] (L. amazonensis amastigotes), the EC50 was 18.5 µM.

On to `N#Cc1c(/N=C/c2c[nH]c3ccc(Br)cc23)sc2c1CCCCC2` [SB-200], for which, in the series on RAW 264.7 macrophages [3], the CC50 is 32 µM. For the same molecule, the IC50 in series [4] (setting [8]) was 3.6 µM and 3.65 µM; in series [5] (setting [10]) it was 20 µM and 20.1 µM. In addition, the EC50 in series [5] (L. amazonensis amastigotes) is 20.1 µM.
